From patent US20250241878A1, “TYROSINE AND RESVERATROL DERIVATIVES AS NOVEL MODULATORS OF CELLULAR SERINE ADP-RIBOSYLATION” (UNIVERSITY OF SOUTH CAROLINA, priority 2022, published 2025)

Assays:
rat cortical neurons = test: MTT cell viability assay; parameters: effect on neurotoxicity induced by etoposide (ETO) / effect on neurotoxicity induced by oxidative stress (H2O2) / effect on neurotoxicity induced by mitochondrial inhibition (MPP+) / neurotoxicity (viability): dose or concentration left out as unconfirmed; details: for effect on D-Tyr mediated neurotoxicity: combination with D-Tyr
Protocol: Rat cortical neurons (DIV9-11) were exposed to different treatments (NMDA, ETO, H2O2, MPP+) after seeding 20,000 cells/well in 96-well plates. Cell viability was then assessed at 48 hr after the initial exposure to NMDA. 3-[4,5-dimethylthiazole-2-yl]-2,5-diphenyltetrazolium bromide (MTT) assays were used to assess change in cell viability. […] Cultured rat cortical neurons were incubated with MTT (0.5 mg/mL). In the MTT assay, after 2 hr incubation, the insoluble purple product formazan resulting from the reduction of MTT by NAD (P) H-dependent oxidoreductases present in cells with viable mitochondria was solubilized in dimethyl sulfoxide at room temperature, under agitation, and protected from light. The percentage of MTT reduced as measured by the difference between the absorbances at 570 nm read in a spectrophotometer (SpectraMax® 190R Molecular Devices, UK).

cleaved caspase-3 = test: Cleaved caspase-3 immunoblot; assay type: cell-based, rat; details: compound alone; trans-RSV at high concentration
Protocol: FIG. 17E presents immunoblots showing the levels of cleaved caspase-3 in rat cortical neurons (DIV 9/10) after the treatment with D-Tyr (2 mM) for 16 hr.

[1] = system: interaction of PARP1 with histone H3; test: PARP1 immunoprecipitation probed for H3; assay type: cell-based, rat
Protocol: FIG. 18A presents representative immunoblots and quantification of the interaction of H3 with PARP1. […] The interaction of PARP1 with H3 was determined using anti-H3 antibody.

cortical neurons [2] = test: DNA fiber analysis (CIdU incorporation); assay type: cell-based, rat
Protocol: Molecular combing was performed using the FiberComb® Molecular Combing System (Genomic Vision) with a constant stretching factor of 2 kb/μm using […] coverslips (20×20 mm; Genomic Vision). […] The coverslips were then washed with PBS, followed by serial ethanol dehydration (70%-100%). Following two 1×PBS washes, the coverslips were blocked in 3% BSA/1×PBS for 30 min followed by incubation with α-BrdU (for CIdU) (BD [347,580]) (1:100) and ssDNA antibody (MilliporeTM MAB3034) (1:100), for 2 hr at 37° C. After three PBST washes, secondary antibody incubation was done using α-mouse Alexa Fluor® 594 and α-rat Alexa Fluor® 488 (1:500) for 1 hr at 37° C. Coverslips were washed three times with 1×PBST, dehydrated and mounted on slides with mounting media. The stained DNA fibers were visualized using a fluorescence microscope (EVOS FL, Thermo FisherTM Scientific). Analysis was performed in ImageJ by counting the total ssDNA and the CIdU labeled fibers. For each treatment condition, 300 fibers were counted, and the average ratio of CIdU incorporation for ssDNA fibers per condition was used for final representation.

AcK56-H3 and AcK16-H4 = test: Histone acetylation immunoblot (AcK56-H3, AcK16-H4); assay type: cell-based, rat; parameters: dose or concentration left out as unconfirmed
cortical neurons [3] = test: Comet assay; assay type: cell-based, rat; details: for DNA damage, percentage (%) of DNA in the comet tail: compound alone
Protocol: The cells were harvested with a cell scraper using chilled PBS and counted. The comet assay (Trevigen®, Gaithersburg, MD) was performed according to standard methods using alkaline conditions. Electrophoresis was carried out at the rate of 1.0 V/cm for 20 min. The slides were removed from the electrophoresis chamber, washed twice in deionized water for 5 min and immersed in 70% ethanol for 5 min. Subsequently, the slides were dried at 37° C. for 30 min, DNA was stained with 50 μL of SYBR™ Gold dye (Fisher Scientific, 1:10000 in Tris-EDTA buffer, pH 7.5) for 20 min in the dark at room temperature and then analyzed using an epifluorescent microscope at 10× magnification. The images were scored for comet parameters, such as tail length and tail moment (product of % of DNA in the tail and tail length), using the TriTek CometScore™ Freeware v1.5 image analysis software.

eIF2α = test: p-eIF2α Western blot in cortical neurons; assay type: cell-based, rat; details: compound alone
Protocol: Primary cortical neurons were dissected from E18 Sprague Dawley rat pups in Hibernate E (BrainBits®) and dissociated using the Neural Tissue Dissociation kit (Miltenyi Biotec). […] After washing and centrifugation, neurons were seeded in 50 μg/ml poly-D-Lysine (Sigma-Aldrich) coated tissue culture plates. NBActive-1 medium (BrainBits®) supplemented with 100 U/ml of Penicillin-Streptomycin (Life TechnologiesTM), 2 mM L-Glutamine (Life TechnologiesTM), and 1×[…] supplement (R&D SystemsTM) was used as culture medium. For preparation of culture medium containing reduced tyrosine, the components of NBActive-1 medium were altered to combined with a reduced concentration of tyrosine, as mentioned in Table 1, and was supplemented with 100 U/ml of Penicillin-Streptomycin (Life TechnologiesTM), 2 mM L-Glutamine (Life TechnologiesTM), and 1×[…] supplement (R&D SystemsTM) to obtained culture medium with reduced tyrosine. […] For PARP1 siRNA, neurons at 7 DIV were transfected with 75 nM siRNA for both control and PARP1 siRNA. […] The lysates were centrifuged at 10,000 RPM for 15 mins at 4° C. to separate the chromatin-bound and soluble fractions. Lysates were quantified using Bio-RadTM Protein Assay and equal amounts of protein were loaded onto a 4 to 12% gradient gel (InvitrogenTM NuPAGETM). […] Quantification of western blots was done using ImageJ (Version 1.53c).

OGG1 = OGG1 levels Western blot in cortical neurons; assay type: cell-based, rat
Protocol: FIG. 4C presents primary cortical neurons treated with Tyr ([…]) for 8 hr, and OGG1 was detected by Western Blot analysis using anti-OGG1 antibody.
Cultured neurons (DIV 9-10) were washed once with cold 1×PBS and lysed in cell lysis buffer (20 mM Tris-HCl (pH 7.5), 150 mM NaCl, 1 mM Na2EDTA, 1 mM EGTA, 1% Triton™, 2.5 mM sodium pyrophosphate, 1 mM beta-glycerophosphate, 1 mM Na3VO4, 1 μg/ml leupeptin supplemented with protease inhibitor). The lysates were centrifuged at 10,000 RPM for 15 mins at 4° C. to separate the chromatin-bound and soluble fractions. Lysates were quantified using Bio-Rad™ Protein Assay and equal amounts of protein were loaded onto a 4 to 12% gradient gel (Invitrogen™ NuPAGE™). Protein was transferred from the gel to 0.2 μm NC membranes at 25 V for 10 mins using transfer stacks (iBlot™ 2-Invitrogen™) and blocked with 5% non-fat milk in TBST (10 mM Tris-HCl pH 8.0, 150 mM NaCl, 0.01% Tween-20) for 1 hr before application of primary antibodies. Primary and secondary antibodies were incubated overnight at 4° C. and for 1 hr at room temperature, respectively. Immobilon® ECL Ultra Western HRP Substrate (WBULS0500, Millipore™) and a luminescent image analyzer (ChemiDoc™ Imaging System, Bio-Rad™) were used to detect proteins. Quantification of western blots was done using ImageJ (Version 1.53c).

PARP1 = details: previously observed; cited from earlier work

| SMILES | effect on neurotoxicity induced by etoposide (ETO) (rat cortical neurons) | effect on neurotoxicity induced by mitochondrial inhibition (MPP+) (rat cortical neurons) | effect on neurotoxicity induced by oxidative stress (H2O2) (rat cortical neurons) | effect on D-Tyr mediated neurotoxicity (rat cortical neurons) | levels of cleaved caspase-3 (cleaved caspase-3) | DNA damage, percentage (%) of DNA in the comet tail (cortical neurons [3]) | p-eIF2α levels (eIF2α) | auto-PARylation of PARP1 (PARP1) | other results |
| --- | --- | --- | --- | --- | --- | --- | --- | --- | --- |
| Oc1ccc(/C=C/c2cc(O)cc(O)c2)cc1 [trans-RSV, trans-resveratrol] | did not protect against these neurotoxic agents | did not protect against these neurotoxic agents | did not protect against these neurotoxic agents | protected against D-Tyr mediated neurotoxicity but not trans-RSV | increased the levels of cleaved caspase-3 | significantly increased DNA damage | sustained the inhibition of eIF2α |  | neurotoxicity (viability) (rat cortical neurons): by itself was neurotoxic; effect on NMDA mediated neurotoxicity (rat cortical neurons; higher concentrations of trans-RSV (≥25 mM)): exacerbated the toxicity; effect on NMDA mediated neurotoxicity (rat cortical neurons; low concentrations of trans-RSV (≤10 mM)): evoked protective effects; interaction of PARP1 with histone H3 ([1]; higher concentrations (≥25 mM) of trans-RSV): increased it; interaction of PARP1 with histone H3 ([1]; low concentrations of trans-RSV): prevented the interaction of PARP1 with histone H3; incorporation of nucleoside analog CIdU into DNA fibers (cortical neurons [2]; compound alone): prevented the incorporation of the nucleoside analog CIdU into DNA fibers; AcK16-H4 acetylation (AcK56-H3 and AcK16-H4; trans-RSV): inhibited H3 and H4 acetylation at lysines 56 and 16; AcK56-H3 acetylation (AcK56-H3 and AcK16-H4; trans-RSV): inhibited H3 and H4 acetylation at lysines 56 and 16 |
| N[C@@H](Cc1ccc(O)cc1)C(=O)O [tyrosine, L-tyrosine] |  |  |  |  |  | significantly increased DNA damage |  | inhibits the auto-PARylation of PARP1 | OGG1 levels (OGG1; compound alone): decreased 8-oxoguanine-DNA glycosylase (OGG1) levels |
| Oc1ccc(/C=C\c2cc(O)cc(O)c2)cc1 [cis-RSV, cis-resveratrol] | suppressed the neurotoxicity | suppressed the neurotoxicity | suppressed the neurotoxicity | protected against D-Tyr mediated neurotoxicity | decreased the levels of caspase-3 cleavage | did not cause an increase in percentage of DNA in the comet tail | triggered a transient increase in the levels of p-eIF2α | stimulate the auto-PARylation | effect on NMDA-mediated toxicity (rat cortical neurons; cis-RSV): protected against NMDA-mediated toxicity in a concentration-dependent manner; effect on trans-RSV-mediated neurotoxicity (rat cortical neurons; combination with trans-RSV): protected against the neurotoxicity induced by trans-RSV in a dose-dependent manner; effect on tyrosine-mediated decrease of OGG1 levels (OGG1; combination with tyrosine): rescued; interaction of PARP1 with histone H3 ([1]; cis-RSV): prevented the interaction of PARP1 with histone H3; reduction of CIdU incorporation compared to control (cortical neurons [2]; after cis-RSV treatment): 15-20%; AcK16-H4 acetylation (AcK56-H3 and AcK16-H4; cis-RSV): increased the acetylation of H4 lysine 16; effect on DNA damage caused by Tyr (cortical neurons [3]; combination with Tyr): attenuated the increase in DNA damage caused by Tyr |
